# Assay results published in PMC6830221, “Engineering a surrogate human heteromeric α/β glycine receptor orthosteric site exploiting the structural homology and stability of acetylcholine-binding protein” (IUCrJ, 2019).
# “And” between values parts separate entries of the source, which are not always exact repeats. Equal values may be shown once. Read-outs that look alike come from different tables or passages of the source.
# Tests used:
# [1] = target: T1, variant III, glycine-binding protein (GBP) (Aplysia californica, UniProt Q8WSF8, C207G/C208T/G162E/I135S/P209G/Q74R/S206K/T53F/Y110A)
# T1 sequence (Q8WSF8 18-236 C207G/C208T/G162E/I135S/P209G/Q74R/S206K/T53F/Y110A limits assumed): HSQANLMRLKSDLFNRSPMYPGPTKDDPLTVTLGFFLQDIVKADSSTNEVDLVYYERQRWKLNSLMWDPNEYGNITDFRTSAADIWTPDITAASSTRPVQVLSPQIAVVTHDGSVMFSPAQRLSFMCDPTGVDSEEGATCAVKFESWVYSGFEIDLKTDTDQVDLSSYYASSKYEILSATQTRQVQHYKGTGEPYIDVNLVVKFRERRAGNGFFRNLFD
# AcAChBP variant I = AcAChBP variant I (Aplysia californica, UniProt Q8WSF8, I135S/Q74R/T53F/W164F/Y110A)
# AcAChBP variant I, sequence (Q8WSF8 18-236 T53F/Q74R/Y110A/I135S/W164F limits assumed): as the sequence (Q8WSF8 18-236 C207G/C208T/G162E/I135S/P209G/Q74R/S206K/T53F/Y110A limits assumed) above, with E145G, W147F, K189S, G190C, T191C, G192P counted along it
# Procedure: (§1) Measurements were recorded using a PerkinElmer LS-55 spectrophotometer with the detector sensitivity set to 750 V. Stock solutions of 10 µg ml^−1 GBP and AcAChBP were prepared, along with two strychnine stock solutions of 100 µM and 1 mM in the same buffer as used for the ITC experiments. The protein samples (2 ml) were excited at a wavelength of 280 nm, and emission was recorded between 300 and 400 nm. For GBP, aliquots of 20 µl of the 1 mM strychnine stock were used, followed by mixing. For AChBP, additions of 2 µl of the 100 µM strychnine stock were made, followed by mixing. Experiments were carried out in triplicate and the percentage change in fluorescence was calculated. Data were analyzed using Microsoft Excel and GraphPad Prism 7.
# AcAChBP variant II = AcAChBP variant II (Aplysia californica, UniProt Q8WSF8, G162E/I135S/Q74R/T53F/Y110A)
# AcAChBP variant II, sequence (Q8WSF8 18-236 T53F/Q74R/Y110A/I135S/G162E limits assumed): as the sequence (Q8WSF8 18-236 C207G/C208T/G162E/I135S/P209G/Q74R/S206K/T53F/Y110A limits assumed) above, with K189S, G190C, T191C, G192P counted along it
# Procedure: as §1
# [2] = target: T1, variant III, glycine-binding protein (GBP); remark: listed apart in the source
# Procedure: (§2) Fluorescence-based screening by differential scanning fluorimetry (DSF; see, for example, Eadsforth et al., 2012[▸]) was used to determine the melting temperature (T m) values. An Mx3005P RT PCR system (Stratagene) was used to monitor protein unfolding by the increase in fluorescence of SYPRO Orange dye (Invitrogen). Assays were carried out in 40 µl volumes with proteins at around 10 µM in 50 mM Tris–HCl, 250 mM NaCl pH 7.5 in 96-well RT PCR plates (ABgene). To investigate the influence of the chemical probe strychnine, 1 µl of strychnine dissolved in DMSO or buffer and then diluted with buffer was incubated with the protein solutions for 5 min prior to 71 cycles of 1°C temperature increments starting at 25°C. After each 1°C increase the sample was excited at 492 nm and fluorescence emission was recorded at 610 nm. The melting temperatures were plotted against a reference control sample of DMSO only. The strychnine concentration varied between […], with a requirement to limit the concentration of DMSO in the final mixture to <2.5%.
# [3] = target: T1, variant III, glycine-binding protein (GBP); experiment: biochemical
# Procedure: (§3) The interaction of strychnine with AcAChBP and GBP was investigated using ITC. Measurements were carried out with a MicroCal PEAQ-ITC (Malvern Panalytical) at 25°C. The protein solutions (10 µM AcAChBP, 40 µM GBP) were prepared by dialysis against buffer (50 mM Tris–HCl pH 7.5, 250 mM NaCl) at 4°C overnight. Strychnine solutions (concentrations of 100 and 500 µM) were prepared in the same buffer. For the experiments, the initial injection of one 0.4 µl aliquot was followed by 17 × 2 µl injections at 3 min intervals. In each case the injection needle acted as a paddle, stirring the cell contents at 750 rev min^−1, and the reference was set at 10 µcal s^−1. Data were analyzed using the software supplied by the manufacturer to calculate K d, ΔH, −TΔS, ΔG and N, which were derived from a one-binding-site model. Control measurements, buffer into buffer, strychnine into buffer and buffer into protein solutions, were used to determine an appropriate offset adjustment. Examples of the data, averaged parameters and standard errors derived from three titrations are presented in Supplementary Fig. S1.
# [4] = target: T1, variant III, glycine-binding protein (GBP); experiment: biochemical; remark: listed apart in the source
# Procedure: as §1
# AcAChBP [5] = settings: ref Hansen et al., cited from earlier work
# WT AcAChBP [6] = target: T2, WT AcAChBP (Aplysia californica, UniProt Q8WSF8); experiment: Tryptophan fluorescence-quenching assay; format: binding; parameters: made in house; host or cells: baculovirus/Sf9
# T2 sequence (Q8WSF8 entry or part of it): as the sequence (Q8WSF8 18-236 C207G/C208T/G162E/I135S/P209G/Q74R/S206K/T53F/Y110A limits assumed) above, with F36T, R57Q, A93Y, S118I, E145G, K189S, G190C, T191C, G192P counted along it
# Procedure: as §1
# [7] = target: AcAChBP variant I (T53F, Q74R, Y110A, I135S, W164F) (Aplysia californica, UniProt Q8WSF8, I135S/Q74R/T53F/W164F/Y110A); settings: Table S1, Variant-I, biphasic melting
# AcAChBP variant I (T53F, Q74R, Y110A, I135S, W164F), sequence (Q8WSF8 18-236 T53F/Q74R/Y110A/I135S/W164F limits assumed): as the sequence (Q8WSF8 18-236 C207G/C208T/G162E/I135S/P209G/Q74R/S206K/T53F/Y110A limits assumed) above, with E145G, W147F, K189S, G190C, T191C, G192P counted along it
# Procedure: as §2
# [8] = target: AcAChBP variant II (T53F, Q74R, Y110A, I135S, G162E) (Aplysia californica, UniProt Q8WSF8, G162E/I135S/Q74R/T53F/Y110A); settings: Table S1, Variant-II
# AcAChBP variant II (T53F, Q74R, Y110A, I135S, G162E), sequence (Q8WSF8 18-236 T53F/Q74R/Y110A/I135S/G162E limits assumed): as the sequence (Q8WSF8 18-236 C207G/C208T/G162E/I135S/P209G/Q74R/S206K/T53F/Y110A limits assumed) above, with K189S, G190C, T191C, G192P counted along it
# Procedure: as §2
# AcAChBP [9] = settings: ref Brams et al., 2011; cited from earlier work
# WT AcAChBP [10] = target: T2, WT AcAChBP; experiment: biochemical
# Procedure: as §3
# [11] = target: recombinant homomeric GlyR-α1; settings: radioligand saturation assay, ref Wöhri et al., 2013; cited from earlier work
# [12] = target: recombinant homomeric GlyR-α1; settings: ITC, ref Wöhri et al., 2013; cited from earlier work
# [13] = target: recombinant homomeric GlyR-α3; settings: surface plasmon resonance, ref Huang et al., 2015; cited from earlier work
# [14] = ref Haynes, 2015; cited from earlier work
# [15] = target: recombinant homomeric GlyR-α3; settings: ITC, ref Huang et al., 2015; cited from earlier work
# [16] = binding to AcAChBP, stopped-flow spectrofluorimetry, 2005
structure (smiles),measurement,setting,value
NCC(=O)O [glycine],association with variant III (biolayer interferometry),[1],failed to show any binding
same,ligand binding (tryptophan fluorescence),AcAChBP variant I,neither did the fluorescence assay register any glycine binding
same,ligand binding (tryptophan fluorescence),AcAChBP variant II,neither did the fluorescence assay register any glycine binding
same,ΔTm,"[2]; ligand binding to variant III (GBP), DSF",+2 °C
same,association with variant III (ITC),[3]; variant III (GBP),failed to show any binding
same,association with variant III (fluorescence assay),[4]; variant III (GBP),failed to show any binding
CN1CCC[C@H]1c1cccnc1 [nicotine],ligand binding (tryptophan fluorescence),AcAChBP variant I,Neither variant I nor variant II appeared to be able to bind nicotine
same,ligand binding (tryptophan fluorescence),AcAChBP variant II,Neither variant I nor variant II appeared to be able to bind nicotine
same,Kd,AcAChBP [5]; [16],250 nM
same,Kd,"WT AcAChBP [6]; binding to WT AcAChBP, tryptophan fluorescence, three titrations, read-out: Kd",245 nM
CN1[C@@H]2CC[C@H]1C[C@@H](OC(=O)c1c[nH]c3ccccc13)C2 [tropisetron],Kd,AcAChBP [5]; [16],480 nM
same,Kd,WT AcAChBP [6],275 nM
O=C1C[C@@H]2OCC=C3CN4CC[C@]56c7ccccc7N1[C@H]5[C@H]2[C@H]3C[C@H]46 [strychnine],∆Tm (C) + strychnine,"[2]; Table S1, Variant-III (GBP)",+3 C
same,∆Tm (C) + strychnine,[7]; first value,+5 C
same,∆Tm (C) + strychnine,[7]; second value,+25 C
same,∆Tm (C) + strychnine,[8],+5 C
same,Kd,"AcAChBP [5]; AcAChBP, stopped-flow spectrofluorimetry assay, 2004",15 nM
same,Ki,AcAChBP [9],38 nM
same,Kd,[3],28800 nM
same,Kd,WT AcAChBP [10],74.1 nM
same,Kd,[11],52 nM
same,Kd,WT AcAChBP [6],155 nM
same,Kd,[12],138 nM
same,Kd,[13],43 nM
same,Kd,"[4]; Kd, tryptophan fluorescence, GBP, n=3",26600 nM and 27000 nM
same,pKa,[14],approximately 8.3
same,Kd,[15],52 nM
